The source of these data is patent US20170129916A1, “NOVEL BETULINIC PROLINE IMIDAZOLE DERIVATIVES AS HIV INHIBITORS” (HETERO RESEARCH FOUNDATION, priority 2014, published 2017).

Series [1] is described as follows: Single dose oral pharmacokinetic study. It is filed as in vivo. Conditions: mouse, mice, 30 mg/kg, plasma; for AUC(0-t): read-out: Mice oral PK @30 mg/kg AUC 0-t; for Cmax: read-out: Mice oral PK @30 mg/kg Cmax. The gist of the method: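 Rats or mice received 30 mg/kg orally at 10 ml/kg dose volume. Retro-orbital blood was taken into K3 EDTA at defined intervals under light ether anesthesia and centrifuged to plasma. Plasma levels were measured by LC-MS-MS.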

In series [2] the test system is HIV-1 strains, for e.g., 92HT599. Kind of series: Antiviral activity: p24 estimation in MT-2 cells infected with HIV-1. The format is cell-based. The following applies: Human immunodeficiency virus 1, MT2, MT-2 cells infected with HIV-1, p24, ~96 hours; for IC50: read-out: Antiviral activity IC50 (nM) Efficacy IC50. In short, it runs like this:
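MT-2 cells infected with HIV-1 (e.g. 92HT599), plated at 30,000 cells/well with compound (DMSO ≤1%) and incubated ~96 h. Supernatant p24 quantified by kit; percent inhibition relative to vehicle controls.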

One may read the IC50 as the point on the concentration scale where inhibition reaches its midpoint. In general, inhibition refers to the change of the read-out against control, counted positive when it falls.

Turning to `C=C(C)[C@@H]1CC[C@]2(C(=O)N3CCC[C@H]3c3nnc(-c4ccccc4)[nH]3)CC[C@]3(C)[C@H](CC[C@@H]4[C@@]5(C)CC[C@H](OC(=O)CC(C)(C)C(=O)O)C(C)(C)[C@@H]5CC[C@]43C)[C@@H]12` [Compound 48, 2,2-dimethyl-4-oxo-4-(((1R,3aS,5aR,5bR,7aR,9S,11aR,11bR,13aR,13bR)-5a,5b,8,8,11a-pentamethyl-3a-((S)-2-(5-phenyl-4H-1,2,4-triazol-3-yl)pyrrolidine-1-carbonyl)-1-(prop-1-en-2-yl)icosahydro-1H-cyclopenta[a]chrysen-9-yl)oxy)butanoic acid], in series [1], the AUC(0-t) came to 299 µg·h/mL and the Cmax is 20800 ng/mL. Moreover, the IC50 in series [2] was 5.8 nM.
`CC1([C@@H]2CC[C@]3(C(=O)N4CCC[C@H]4c4ncc(-c5cccc(F)c5)[nH]4)CC[C@]4(C)[C@H](CC[C@@H]5[C@@]6(C)CC[C@H](OC(=O)[C@H]7C[C@@H](C(=O)O)C7(C)C)C(C)(C)[C@@H]6CC[C@]54C)[C@@H]23)CC1` [Compound 50, (1R,3S)-3-((((1R,3aS,5aR,5bR,7aR,9S,11aR,11bR,13aR,13bR)-3a-((S)-2-(5-(3-fluorophenyl)-1H-imidazol-2-yl)pyrrolidine-1-carbonyl)-5a,5b,8,8,11a-pentamethyl-1-(1-methylcyclopropyl)icosahydro-1H-cyclopenta[a]chrysen-9-yl)oxy)carbonyl)-2,2-dimethylcyclobutane-1-carboxylic acid]: in series [1], the AUC(0-t) turned out to be 358 µg·h/mL and the Cmax came out at 13900 ng/mL. The IC50 in series [2] was 0.35 nM.
On to `CC1([C@@H]2CC[C@]3(C(=O)N4CCC[C@H]4c4ncc(-c5ccccn5)[nH]4)CC[C@]4(C)[C@H](CC[C@@H]5[C@@]6(C)CC[C@H](OC(=O)[C@H]7C[C@@H](C(=O)O)C7(C)C)C(C)(C)[C@@H]6CC[C@]54C)[C@@H]23)CC1` [Compound 51, (1R,3S)-2,2-dimethyl-3-((((1R,3aS,5aR,5bR,7aR,9S,11aR,11bR,13aR,13bR)-5a,5b,8,8,11a-pentamethyl-1-(1-methylcyclopropyl)-3a-((S)-2-(5-(pyridin-2-yl)-1H-imidazol-2-yl)pyrrolidine-1-carbonyl)icosahydro-1H-cyclopenta[a]chrysen-9-yl)oxy)carbonyl)cyclobutane-1-carboxylic acid], for which, in series [1], the AUC(0-t) is 160 µg·h/mL and the Cmax is 4930 ng/mL. For the same molecule, the IC50 in series [2] was 43.3 nM.
With `COCCO[C@@H]1C[C@@H](c2nc(-c3ccc(F)cc3)c[nH]2)N(C(=O)[C@]23CC[C@@H](C4(C)CC4)[C@@H]2[C@H]2CC[C@@H]4[C@@]5(C)CC[C@H](OC(=O)[C@H]6C[C@@H](C(=O)O)C6(C)C)C(C)(C)[C@@H]5CC[C@@]4(C)[C@]2(C)CC3)C1` [Compound 55, (1R,3S)-3-((((1R,3aS,5aR,5bR,7aR,9S,11aR,11bR,13aR,13bR)-3a-((2S,4R)-2-(4-(4-fluorophenyl)-1H-imidazol-2-yl)-4-(2-methoxyethoxy)pyrrolidine-1-carbonyl)-5a,5b,8,8,11a-pentamethyl-1-(1-methylcyclopropyl)icosahydro-1H-cyclopenta[a]chrysen-9-yl)oxy)carbonyl)-2,2-dimethylcyclobutane-1-carboxylic acid], in series [1], the AUC(0-t) was 381 µg·h/mL and the Cmax was 14300 ng/mL. Moreover, the IC50 in series [2] is 1.04 nM.
`CC(C)(C)c1c[nH]c([C@@H]2CCCN2C(=O)[C@]23CC[C@@H](C4(C)CC4)[C@@H]2[C@H]2CC[C@@H]4[C@@]5(C)CC[C@H](OC(=O)[C@H]6C[C@@H](C(=O)O)C6(C)C)C(C)(C)[C@@H]5CC[C@@]4(C)[C@]2(C)CC3)n1` [Compound 56, (1R,3S)-3-((((1R,3aS,5aR,5bR,7aR,9S,11aR,11bR,13aR,13bR)-3a-((S)-2-(4-(tert-butyl)-1H-imidazol-2-yl)pyrrolidine-1-carbonyl)-5a,5b,8,8,11a-pentamethyl-1-(1-methylcyclopropyl)icosahydro-1H-cyclopenta[a]chrysen-9-yl)oxy)carbonyl)-2,2-dimethylcyclobutane-1-carboxylic acid]: in series [1], the AUC(0-t) was 375 µg·h/mL and the Cmax was 12000 ng/mL. In addition, the IC50 in series [2] is 56.2 nM.
Turning to `CC1([C@@H]2CC[C@]3(C(=O)N4CCC(c5ncc(-c6ccccc6)[nH]5)CC4)CC[C@]4(C)[C@H](CC[C@@H]5[C@@]6(C)CC[C@H](OC(=O)[C@H]7C[C@@H](C(=O)O)C7(C)C)C(C)(C)[C@@H]6CC[C@]54C)[C@@H]23)CC1` [Compound 57, (1R,3S)-2,2-dimethyl-3-((((1R,3aS,5aR,5bR,7aR,9S,11aR,11bR,13aR,13bR)-5a,5b,8,8,11a-pentamethyl-1-(1-methylcyclopropyl)-3a-(4-(5-phenyl-1H-imidazol-2-yl)piperidine-1-carbonyl)icosahydro-1H-cyclopenta[a]chrysen-9-yl)oxy)carbonyl)cyclobutane-1-carboxylic acid], in series [1], the AUC(0-t) turned out to be 66.4 µg·h/mL and the Cmax stood at 2790 ng/mL. Also, the IC50 in series [2] was 4.42 nM.
For `CC1([C@@H]2CC[C@]3(C(=O)N4CCC[C@H]4c4ncc(C(F)(F)F)[nH]4)CC[C@]4(C)[C@H](CC[C@@H]5[C@@]6(C)CC[C@H](OC(=O)[C@H]7C[C@@H](C(=O)O)C7(C)C)C(C)(C)[C@@H]6CC[C@]54C)[C@@H]23)CC1` [Compound 59, (1R,3S)-2,2-dimethyl-3-((((1R,3aS,5aR,5bR,7aR,9S,11aR,11bR,13aR,13bR)-5a,5b,8,8,11a-pentamethyl-1-(1-methylcyclopropyl)-3a-((S)-2-(5-(trifluoromethyl)-1H-imidazol-2-yl)pyrrolidine-1-carbonyl)icosahydro-1H-cyclopenta[a]chrysen-9-yl)oxy)carbonyl)cyclobutane-1-carboxylic acid], in series [1], the AUC(0-t) came out at 451 µg·h/mL and the Cmax came out at 15700 ng/mL. Further, the inhibition at 0.1 µM in series [2] (0.1 μM) is 71%. Further, the inhibition at 1 µM in series [2] (1 μM) is 100%. Besides, in series [2], the IC50 is 55.4 nM.
Regarding `CC(C)(CC(=O)O[C@H]1CC[C@]2(C)[C@H]3CC[C@@H]4[C@H]5[C@H](C6(C)CC6)CC[C@]5(C(=O)N5CCC[C@H]5c5ncc(-c6ccccn6)[nH]5)CC[C@@]4(C)[C@]3(C)CC[C@H]2C1(C)C)C(=O)O` [Compound 62, 2,2-dimethyl-4-oxo-4-(((1R,3aS,5aR,5bR,7aR,9S,11aR,11bR,13aR,13bR)-5a,5b,8,8,11a-pentamethyl-1-(1-methylcyclopropyl)-3a-((S)-2-(5-(pyridin-2-yl)-1H-imidazol-2-yl)pyrrolidine-1-carbonyl)icosahydro-1H-cyclopenta[a]chrysen-9-yl)oxy)butanoic acid], in series [1], the AUC(0-t) is 93.1 µg·h/mL and the Cmax was 7120 ng/mL. Moreover, the IC50 in series [2] is 0.8 nM.
On to `CC(C)(CC(=O)O)CC(=O)O[C@H]1CC[C@]2(C)[C@H]3CC[C@@H]4[C@H]5[C@H](C6(C)CC6)CC[C@]5(C(=O)N5CCC[C@H]5c5ncc(-c6ccccn6)[nH]5)CC[C@@]4(C)[C@]3(C)CC[C@H]2C1(C)C` [Compound 63, 3,3-dimethyl-5-oxo-5-(((1R,3aS,5aR,5bR,7aR,9S,11aR,11bR,13aR,13bR)-5a,5b,8,8,11a-pentamethyl-1-(1-methylcyclopropyl)-3a-((S)-2-(5-(pyridin-2-yl)-1H-imidazol-2-yl)pyrrolidine-1-carbonyl)icosahydro-1H-cyclopenta[a]chrysen-9-yl)oxy)pentanoic acid], for which, in series [1], the AUC(0-t) turned out to be 120 µg·h/mL and the Cmax worked out at 4470 ng/mL. The IC50 in series [2] is 3.6 nM.
